The assay concerns parasites (ring stage parasites, parasite growth). Description: Parasite LDH growth assay (Parasite Assay), antiparasite potency. The format is cell-based. The following applies: 72 hours growth, LDH readout; Table 3. Here is the method:
Assessing Antiparasite Potency in a Parasite LDH Growth Assay (Parasite Assay) The parasite stock was maintained at […] in RPMI-Hepes media buffered with sodium bicarbonate and supplemented with […]. […] On the day of assay set up, a blood smear of the parasite culture was Giemsa stained and counted. The parasitemia was adjusted to 0.7% rings and the haematocrit was diluted to 2% in RPMI-Hepes media buffered with sodium bicarbonate and supplemented with 500 heat inactivated human serum and 0.5% albumax. 30 ul of diluted parasites are then added into 10 ul of media+compound in pre-prepared Greiner TC assay plates. Parasite assay plates were placed in gassed humidified boxes in single layer and allowed to incubate at 37° C. for 72 hours. After 72 hours growth, assay plates are sealed with parafilm and frozen flat, in single file at −80° C. overnight. On the following day, assay plates are allowed to thaw at room temperature for 4 hours to which an LDH assay is performed to measure parasite growth.

Structures are written as SMILES.

The record followed here is patent US12338219B2, “Antimalarial agents” (Merck Sharp & Dohme LLC, priority 2019, dated 2025).

Usually EC50 stands for the concentration needed to bring the measured effect to its halfway point. Compound `CCC1(CC)CC(=O)N(CC2C(C(=O)N[C@H]3CC(C)(C)Oc4ccccc43)C2(F)F)C(=N)N1` (single isomer, unassigned) [Example 16A] displayed an EC50 of 33 nM.

Consider `CCC1(CC)CC(=O)N(CC2C(C(=O)N[C@H]3CC(C)(C)Oc4ccccc43)C2(F)F)C(=N)N1` (single isomer, unassigned) [Example 16B], for which a half-maximal effect (EC50) was put at 119 nM.

With `CCC1(CC)CC(=O)N(CC2C(C(=O)N[C@H]3C[C@H](C(F)(F)F)Oc4ccccc43)C2(F)F)C(=N)N1` (single isomer, unassigned) [Example 17A], the EC50 came to 47 nM.

Regarding `CCC1(CC)CC(=O)N(CC2C(C(=O)N[C@H]3C[C@H](C(F)(F)F)Oc4ccccc43)C2(F)F)C(=N)N1` (single isomer, unassigned) [Example 17B], the midpoint of the response, the EC50, lay at 20 nM.

`CCC1(CC)CC(=O)N(C[C@@H]2C(C)[C@H]2C(=O)N[C@H]2CC(C)(C)Oc3ccccc32)C(=N)N1` (single isomer, unassigned) [Example 25A] yielded an EC50 of 84 nM.

As to `CCC1(CC)CC(=O)N(C[C@@H]2C(C)[C@H]2C(=O)N[C@H]2CC(C)(C)Oc3ccccc32)C(=N)N1` (single isomer, unassigned) [Example 25B], the EC50 was found to be 25 nM.

`CCC1(CC)CC(=O)N(C[C@@H]2C(C)[C@H]2C(=O)N[C@@H]2c3ccccc3CC2(C)O)C(=N)N1` (single isomer, unassigned) [Example 29A] gave an EC50 of 203 nM.

Take `CCC1(CC)CC(=O)N(C[C@@H]2C(C)[C@H]2C(=O)N[C@@H]2c3ccccc3CC2(C)O)C(=N)N1` (single isomer, unassigned) [Example 29B]: the EC50 came to 351 nM.

Consider `CCC1(CC)CC(=O)N(C[C@@H]2C(C)[C@H]2C(=O)N[C@@H]2c3ccccc3CC2(C)O)C(=N)N1` (single isomer, unassigned) [Example 29C], for which a half-maximal effect (EC50) was put at 113 nM.

For `CCC1(CC)CC(=O)N(C[C@@H]2C(C)[C@H]2C(=O)N[C@@H]2c3ccccc3OC(C)(C)[C@H]2O)C(=N)N1` (single isomer, unassigned) [Example 30A], the concentration giving a half-maximal response (EC50) was found to be 45 nM.

Regarding `CCC1(CC)CC(=O)N(C[C@@H]2C(C)[C@H]2C(=O)N[C@@H]2c3ccccc3OC(C)(C)[C@H]2O)C(=N)N1` (single isomer, unassigned) [Example 30B], a half-maximal effect (EC50) was put at 7.7 nM.

As to `CCC1(CC)CC(=O)N(C[C@@H]2C(C)[C@H]2C(=O)N[C@@H]2c3ccccc3OCC2(C)O)C(=N)N1` (single isomer, unassigned) [Example 35A], it took 85 nM to reach a half-maximal effect (EC50).

Turning to `CCC1(CC)CC(=O)N(C[C@@H]2C(C)[C@H]2C(=O)N[C@@H]2c3ccccc3OCC2(C)O)C(=N)N1` (single isomer, unassigned) [Example 35B], the concentration giving a half-maximal response (EC50) was 220 nM.

Compound `CC1[C@@H](C(c2cccnc2)N2C(=N)NC(C)(C)CC2=O)[C@@H]1C(=O)N[C@H]1C[C@H](C(F)(F)F)Oc2ccccc21` (single isomer, unassigned) [Example 54A] displayed an EC50 of 1 nM.

Regarding `CC1[C@@H](C(c2cccnc2)N2C(=N)NC(C)(C)CC2=O)[C@@H]1C(=O)N[C@H]1C[C@H](C(F)(F)F)Oc2ccccc21` (single isomer, unassigned) [Example 54B], the EC50 was 130 nM.

Compound `CCC1(C)CC(NC(=O)[C@@H]2C[C@H]2[C@@H](CCOC)N2C(=N)NC(C)(C)CC2=O)c2ccccc2O1` (single isomer, unassigned) [Example 75B] registered an EC50 of 7.5 nM.

`CCC1(C)CC(NC(=O)[C@@H]2C[C@H]2[C@@H](CCOC)N2C(=N)NC(C)(C)CC2=O)c2ccccc2O1` (single isomer, unassigned) [Example 75C] gave an EC50 of 7 nM.

`CCC1(C)CC(NC(=O)[C@@H]2C[C@H]2[C@@H](CCOC)N2C(=N)NC(C)(C)CC2=O)c2ccccc2O1` (single isomer, unassigned) [Example 75D] returned an EC50 of 7 nM.

For `CC(C)C1(C)CC(NC(=O)[C@@H]2C[C@H]2CN2C(=N)NC(C)(C)CC2=O)c2ccccc2O1` (single isomer, unassigned) [Example 79B], a half-maximal response (EC50) required 275 nM.

`CC(C)C1(C)CC(NC(=O)[C@@H]2C[C@H]2CN2C(=N)NC(C)(C)CC2=O)c2ccccc2O1` (single isomer, unassigned) [Example 79C] yielded a concentration for a half-maximal effect (EC50) of 289 nM.

Turning to `COCC[C@H]([C@@H]1C[C@H]1C(=O)NC1CC(C)(C(C)C)Oc2ccccc21)N1C(=N)NC(C)(C)CC1=O` (single isomer, unassigned) [Example 80A], the EC50 is 9.4 nM.

`COCC[C@H]([C@@H]1C[C@H]1C(=O)NC1CC(C)(C(C)C)Oc2ccccc21)N1C(=N)NC(C)(C)CC1=O` (single isomer, unassigned) [Example 80B] returned an EC50 of 6.6 nM.

Take `COCC[C@H]([C@@H]1C[C@H]1C(=O)NC1CC(C)(C(C)C)Oc2ccccc21)N1C(=N)NC(C)(C)CC1=O` (single isomer, unassigned) [Example 80C]: it took 14 nM to reach a half-maximal effect (EC50).

`COCC[C@H]([C@@H]1C[C@H]1C(=O)NC1CC(C)(C(C)C)Oc2ccccc21)N1C(=N)NC(C)(C)CC1=O` (single isomer, unassigned) [Example 80D] registered an EC50 of 21 nM.

The compound `CC(C)C1(C)CC(NC(=O)[C@@H]2C[C@H]2[C@@H](c2cccnc2)N2C(=N)NC(C)(C)CC2=O)c2ccccc2O1` (single isomer, unassigned) [Example 81A] had an EC50 of 2.7 nM.

In turn, `CC(C)C1(C)CC(NC(=O)[C@@H]2C[C@H]2[C@@H](c2cccnc2)N2C(=N)NC(C)(C)CC2=O)c2ccccc2O1` (single isomer, unassigned) [Example 81B] registered an EC50 of 1 nM.

As to `CC(C)C1(C)CC(NC(=O)[C@@H]2C[C@H]2[C@@H](c2cccnc2)N2C(=N)NC(C)(C)CC2=O)c2ccccc2O1` (single isomer, unassigned) [Example 81C], the 50% effective concentration (EC50) was found to be 0.9 nM.

Turning to `CC(C)C1(C)CC(NC(=O)[C@@H]2C[C@H]2[C@@H](c2cccnc2)N2C(=N)NC(C)(C)CC2=O)c2ccccc2O1` (single isomer, unassigned) [Example 81D], the midpoint of the response, the EC50, lay at 1.3 nM.

Take `COCC[C@H]([C@@H]1C[C@H]1C(=O)NC1CC(C)(COC)Oc2ccccc21)N1C(=N)NC(C)(C)CC1=O` (single isomer, unassigned) [Example 82A]: a half-maximal effect (EC50) was put at 24.4 nM.

Regarding `COCC[C@H]([C@@H]1C[C@H]1C(=O)NC1CC(C)(COC)Oc2ccccc21)N1C(=N)NC(C)(C)CC1=O` (single isomer, unassigned) [Example 82B], the EC50 came out at 57 nM.

With `COCC[C@H]([C@@H]1C[C@H]1C(=O)NC1CC(C)(COC)Oc2ccccc21)N1C(=N)NC(C)(C)CC1=O` (single isomer, unassigned) [Example 82C], the EC50 turned out to be 53 nM.

Regarding `COCC[C@H]([C@@H]1C[C@H]1C(=O)NC1CC(C)(COC)Oc2ccccc21)N1C(=N)NC(C)(C)CC1=O` (single isomer, unassigned) [Example 82D], the EC50 turned out to be 27 nM.

Regarding `CC1(C)CC(=O)N([C@H](c2cccnc2)[C@@H]2C[C@H]2C(=O)NC2CC(C)(C)Oc3ccc(F)cc32)C(=N)N1` (single isomer, unassigned) [Example 98A], the EC50 was found to be 0.9 nM.

Turning to `CC1(C)CC(=O)N([C@H](c2cccnc2)[C@@H]2C[C@H]2C(=O)NC2CC(C)(C)Oc3ccc(F)cc32)C(=N)N1` (single isomer, unassigned) [Example 98B], the 50% effective concentration (EC50) was found to be 2.2 nM.

`CC[C@]1(C)CC(=O)N(C(c2cncc(F)c2)[C@@H]2C[C@H]2C(=O)N[C@@H]2c3ccccc3OC(C)(C)C2(C)O)C(=N)N1` (single isomer, unassigned) [Example 103A] had an EC50 of 29 nM.

`CC[C@]1(C)CC(=O)N(C(c2cncc(F)c2)[C@@H]2C[C@H]2C(=O)N[C@@H]2c3ccccc3OC(C)(C)C2(C)O)C(=N)N1` (single isomer, unassigned) [Example 103B] showed an EC50 of 2.1 nM.

The compound `CC[C@]1(C)CC(=O)N(C(c2cncc(F)c2)[C@@H]2C[C@H]2C(=O)NC2c3ccccc3OC(C(F)(F)F)C2O)C(=N)N1` (single isomer, unassigned) [Example 104A] gave an EC50 of 4 nM.

The compound `CC[C@]1(C)CC(=O)N(C(c2cncc(F)c2)[C@@H]2C[C@H]2C(=O)NC2c3ccccc3OC(C(F)(F)F)C2O)C(=N)N1` (single isomer, unassigned) [Example 104B] registered an EC50 of 22 nM.

Compound `CCC1(C)CC(NC(=O)[C@@H]2C[C@H]2[C@@H](c2cccnc2)N2C(=N)NC(C)(C)CC2=O)c2ccccc2O1` (single isomer, unassigned) [Example 105A] had an EC50 of 0.9 nM.

Take `CCC1(C)CC(NC(=O)[C@@H]2C[C@H]2[C@@H](c2cccnc2)N2C(=N)NC(C)(C)CC2=O)c2ccccc2O1` (single isomer, unassigned) [Example 105B]: the EC50 turned out to be 1.8 nM.

As to `CCC1(C)CC(NC(=O)[C@@H]2C[C@H]2[C@@H](c2cccnc2)N2C(=N)NC(C)(C)CC2=O)c2ccccc2O1` (single isomer, unassigned) [Example 105C], the EC50 is 0.8 nM.

The compound `CCC1(C)CC(NC(=O)[C@@H]2C[C@H]2[C@@H](c2cccnc2)N2C(=N)NC(C)(C)CC2=O)c2ccccc2O1` (single isomer, unassigned) [Example 105D] had an EC50 of 0.9 nM.

`COCC1(C)CC(NC(=O)[C@@H]2C[C@H]2[C@@H](c2cccnc2)N2C(=N)NC(C)(C)CC2=O)c2ccccc2O1` (single isomer, unassigned) [Example 108A] registered an EC50 of 70 nM.

Compound `COCC1(C)CC(NC(=O)[C@@H]2C[C@H]2[C@@H](c2cccnc2)N2C(=N)NC(C)(C)CC2=O)c2ccccc2O1` (single isomer, unassigned) [Example 108B] gave an EC50 of 3.7 nM.
